Test [1] addresses recombinant human Mcl-1 (residues 171-327) / Bim interaction (Homo sapiens (Human), UniProt Q07820). Briefly: biochemical. It counts as binding. Particulars: read-out: Mcl-1 HTRF IC50. (In TR-FRET formats the signal depends on donor and acceptor labels being close together.)
Test [2] deals with human multiple myeloma cell line, OPM-2. Briefly: Cell viability assay (OPM-2 10 FBS), CellTiter-Glo. It counts as cell-based. In outline: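 IC50 values come from 4-parameter logistic fits of luminescence signals reflecting cell viability. Treatment lasted 16 h at 37 °C in complete medium with 10% FBS, starting from 3000 cells/well.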
Background: ATP-based viability assays read luminescence as a measure of living cells.

The mark [3] stands for this setting: Homo sapiens, OPM-2, 16 h, read-out: OPM-2 10% FBS IC50 IP, OPM-2 cells, 10% FBS, 16 h, CellTiter-Glo.
[4] abbreviates: 0.1 nM Mcl-1(171-327), 0.05 nM biotin-Bim (51-76).
The mark [5] stands for this setting: Homo sapiens, OPM-2, 16 h, read-out: OPM-2 10% FBS IC50 IP, OPM-2 cells, 10% FBS, 16 h incubation.
The mark [6] stands for this setting: read-out: OPM-2 10% FBS IC50 IP, OPM-2 cells, 10% FBS, 16 h incubation.
Where [7] appears, read: TR-FRET, Mcl-1(171-327) / biotin-Bim (51-76).
Setting [8] is: read-out: OPM-2 10% FBS IC50 IP, OPM-2 cells, 10% FBS, 16 h, CellTiter-Glo.

A word on the IC50: it is the midpoint of a concentration-inhibition curve.

Where two headings read alike, the source gives them in different places.

Sequence of recombinant human Mcl-1 (residues 171-327) / Bim interaction (Q07820 171-327): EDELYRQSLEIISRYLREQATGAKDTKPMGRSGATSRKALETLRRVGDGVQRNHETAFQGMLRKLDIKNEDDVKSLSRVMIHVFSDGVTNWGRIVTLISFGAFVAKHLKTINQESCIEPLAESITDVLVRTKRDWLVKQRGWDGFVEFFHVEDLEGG

On to `CC#C[C@@]1(O)/C=C/C[C@H](C)[C@@H](C)S(=O)(=O)NC(=O)c2ccc3c(c2)N(C[C@@H]2CC[C@H]21)C[C@@]1(CCCc2cc(Cl)ccc21)CO3` [Example 100498, (1S,3′R,6′R,7′R,8′E,11′S,12′R)-6-chloro-7′-hydroxy-11′,12′-dimethyl-7′-(1-propyn-1-yl)-3,4-dihydro-2H,15′H-spiro[naphthalene-1,22′-[20]oxa[13]thia[1,14]diazatetracyclo [14.7.2.0~3,6~.0~19,24~]pentacosa[8,16,18,24]tetraen]-15′-one 13′,13′-dioxide], for which the figures for the 50% inhibitory concentration (IC50) in test [1] and in test [2] (setting [3]) were 0.885 nM and 1660 nM, respectively.
As for `CCOC(=O)CN1CCN(C[C@]2(OC)/C=C/C[C@H](C)[C@@H](C)S(=O)(=O)NC(=O)c3ccc4c(c3)N(C[C@@H]3CC[C@H]32)C[C@@]2(CCCc3cc(Cl)ccc32)CO4)CC1` [Example 261, ethyl (4-(((1S,3′R,6′R,7′S,8′E,11′S, 12′R)-6-chloro-7′-methoxy-11′,12′-dimethyl-13′,13′-dioxido-15′-oxo-3,4-dihydro-2H-spiro[naphthalene-1,22′-[20]oxa[13]thia[1,14]diazatetracyclo [14.7.2.0~3,6~.0~19,24~]pentacosa[8,16,18,24]tetraen]-7′-yl)methyl)-1-piperazinyl)acetate], the IC50 in test [1] (setting [4]) was 0.153 nM; in test [2] (setting [5]), 146 nM.
As for `CO[C@@]1(CN2CCN3CCN(C(=O)CCS(=O)(=O)c4ccccc4)C[C@@H]3C2)/C=C/C[C@H](C)[C@@H](C)S(=O)(=O)NC(=O)c2ccc3c(c2)N(C[C@@H]2CC[C@H]21)C[C@@]1(CCCc2cc(Cl)ccc21)CO3` (single isomer, unassigned) [Example 294], the results for the IC50 in test [1] (setting [4]) and in test [2] (setting [6]) were 0.66 nM and 687 nM, respectively.
In the case of `CO[C@@]1(CN2CCN3CC[C@H](F)C[C@@H]3C2)/C=C/C[C@H](C)[C@@H](C)S(=O)(=O)NC(=O)c2ccc3c(c2)N(C[C@@H]2CC[C@H]21)C[C@@]1(CCCc2cc(Cl)ccc21)CO3` [Example 274], the half-maximal inhibitory concentration (IC50) in test [1] (setting [4]) is 0.285 nM; in test [2] (setting [6]), 232 nM.
For `C[C@@H]1[C@@H](C)C/C=C/[C@@](O)(C#CCN(C)C)[C@@H]2CC[C@H]2CN2C[C@@]3(CCCc4cc(Cl)ccc43)COc3ccc(cc32)C(=O)NS1(=O)=O` [Example 100295, (1S,3′R,6′R,7′S,8′E,11′S,12′R)-6-chloro-7′-(3-(dimethylamino)-1-propyn-1-yl)-7′-hydroxy-11′,12′-dimethyl-3,4-dihydro-2H,15′H-spiro[naphthalene-1,22′-[20]oxa[13]thia[1,14]diazatetracyclo [14.7.2.0~3,6~.0~19,24~]pentacosa[8,16,18,24]tetraen]-15′-one 13′,13′-dioxide], the concentration for half-maximal inhibition (IC50) in test [1] (setting [7]) turned out to be 0.279 nM; in test [2] (setting [8]), 302 nM.
`CC(C)O[C@]1(CN2CCN3CCOC[C@@H]3C2)/C=C/C[C@H](C)[C@@H](C)S(=O)(=O)NC(=O)c2ccc3c(c2)N(C[C@@H]2CC[C@H]21)C[C@@]1(CCCc2cc(Cl)ccc21)CO3` [Example 47, (1S,3′R,6′R,7′R,8′E,11′S,12′R)-6-chloro-7′-((9aS)-hexahydropyrazino[2,1-c][1,4]oxazin-8(1H)-ylmethyl)-11′,12′-dimethyl-7′-(1-methylethoxy)-3,4-dihydro-2H,15′H-spiro[naphthalene-1,22′-[20]oxa[13]thia[1,14]diazatetracyclo [14.7.2.0~3,6~.0~19,24~]pentacosa[8,16,18,24]tetraen]-15′-one 13′,13′-dioxide]: the values for the half-inhibitory concentration (IC50) in test [1] (setting [4]) and in test [2] (setting [5]) were 0.131 nM and 285 nM, respectively.
As for `CO[C@@]1(Cc2ncco2)/C=C/C[C@H](C)[C@@H](C)S(=O)(=O)NC(=O)c2ccc3c(c2)N(C[C@@H]2CC[C@H]21)C[C@@]1(CCCc2cc(Cl)ccc21)CO3` [Example 100508, (1S,3′R,6′R,7′S,8′E,11′S,12′R)-6-chloro-7′-methoxy-11′,12′-dimethyl-7′-(1,3-oxazol-2-ylmethyl)-3,4-dihydro-2H,15′H-spiro[naphthalene-1,22′-[20]oxa[13]thia[1,14]diazatetracyclo [14.7.2.0~3,6~.0~19,24~]pentacosa[8,16,18,24]tetraen]-15′-one 13′,13′-dioxide], the values for the IC50 in test [1] (setting [7]) and in test [2] (setting [3]) were 2.73 nM and 2500 nM, respectively.
As to `C=CC[C@]1(O)CCC[C@H](C)[C@@H](C)S(=O)(=O)NC(=O)c2ccc3c(c2)N(C[C@@H]2CC[C@H]21)C[C@@]1(CCCc2cc(Cl)ccc21)CO3` (single isomer, unassigned) [Example 100273], the IC50 came out at 5.66 nM in test [1] (setting [7]) and 8660 nM in test [2] (setting [8]).
As for `C[C@@H]1[C@@H](C)C/C=C/[C@@](O)(c2ncccc2F)[C@@H]2CC[C@H]2CN2C[C@@]3(CCCc4cc(Cl)ccc43)COc3ccc(cc32)C(=O)NS1(=O)=O` (single isomer, unassigned) [Example 100390], the concentration for half-maximal inhibition (IC50) in test [1] (setting [7]) stood at 0.186 nM; in test [2] (setting [3]), 649 nM.
With `C[C@@H]1[C@@H](C)C/C=C/[C@@](O)(CN2CCN3CCCC[C@@H]3C2)[C@@H]2CC[C@H]2CN2C[C@@]3(CCCc4cc(Cl)ccc43)COc3ccc(cc32)C(=O)NS1(=O)=O` (racemic) [Example 236], the IC50 in test [1] (setting [4]) stood at 0.097 nM; in test [2] (setting [5]) it was 87 nM.
On to `COCC(COC)N1CCN(C[C@]2(OC)/C=C/C[C@H](C)[C@@H](COC)S(=O)(=O)NC(=O)c3ccc4c(c3)N(C[C@@H]3CC[C@H]32)C[C@@]2(CCCc3cc(Cl)ccc32)CO4)CC1` [Example 172, (1S,3′R,6′R,7′S,8′E,11′S,12′S)-6-chloro-7′-methoxy-7′-((4-(2-methoxy-1-(methoxymethyl)ethyl)-1-piperazinyl)methyl)-12′-(methoxymethyl)-11′-methyl-3,4-dihydro-2H,15′H-spiro[naphthalene-1,22′-[20]oxa[13]thia[1,14]diazatetracyclo [14.7.2.0~3,6~.0~19,24~]pentacosa[8,16,18,24]tetraen]-15′-one 13′,13′-dioxide], for which the IC50 came to 0.137 nM in test [1] (setting [4]) and 55 nM in test [2] (setting [5]).
As to `COCC[C@@H]1[C@@H](C)C/C=C/[C@@](CN2CCN(C(C)(C)C)CC2)(OC)[C@@H]2CC[C@H]2CN2C[C@@]3(CCCc4cc(Cl)ccc43)COc3ccc(cc32)C(=O)NS1(=O)=O` [Example 189, (1S,3′R,6′R,7′R,8′E,11′S,12′R)-7′-((4-tert-butyl-1-piperazinyl)methyl)-6-chloro-7′-methoxy-12′-(2-methoxyethyl)-11′-methyl-3,4-dihydro-2H,15′H-spiro[naphthalene-1,22′-[20]oxa[13]thia[1,14]diazatetracyclo [14.7.2.0~3,6~.0~19,24~]pentacosa[8,16,18,24]tetraen]-15′-one 13′,13′-dioxide], the values for the half-inhibitory concentration (IC50) in test [1] (setting [4]) and in test [2] (setting [5]) were 0.084 nM and 33 nM, respectively.
For `COCC[C@@H]1[C@@H](C)C/C=C/[C@@](CN2CCN(C3(C)COC3)CC2)(OC)[C@@H]2CC[C@H]2CN2C[C@@]3(CCCc4cc(Cl)ccc43)COc3ccc(cc32)C(=O)NS1(=O)=O` [Example 192, (1S,3′R,6′R,7′R,8′E,11′S,12′R)-6-chloro-7′-methoxy-12′-(2-methoxyethyl)-11′-methyl-7′-((4-(3-methyl-3-oxetanyl)-1-piperazinyl)methyl)-3,4-dihydro-2H,15′H-spiro[naphthalene-1,22′-[20]oxa[13]thia[1,14]diazatetracyclo [14.7.2.0~3,6~.0~19,24~]pentacosa[8,16,18,24]tetraen]-15′-one 13′,13′-dioxide] the same measures were 0.078 nM and 65 nM.
Regarding `CNC(=O)C[C@]1(OC)/C=C/C[C@H](C)[C@@H](C)S(=O)(=O)NC(=O)c2ccc3c(c2)N(C[C@@H]2CC[C@H]21)C[C@@]1(CCCc2cc(Cl)ccc21)CO3` [Example 100009, 2-((1 S,3′R,6′R,7′S,8′E,11′S, 12′R)-6-chloro-7′-methoxy-11′,12′-dimethyl-13′,13′-dioxido-15′-oxo-3,4-dihydro-2H-spiro[naphthalene-1,22′-[20]oxa[13]thia[1,14]diazatetracyclo[14.7.2.0-3,6˜.0˜19,24˜]pentacosa[8,16,18,24]tetraen]-7′-yl)-N-methylacetamide], the concentration for half-maximal inhibition (IC50) in test [1] (setting [7]) was 0.128 nM; in test [2] (setting [3]), 216 nM.
As to `CCN(CC)C(=O)C[C@]1(O)CCC[C@H](C)[C@@H](C)S(=O)(=O)NC(=O)c2ccc3c(c2)N(C[C@@H]2CC[C@H]21)C[C@@]1(CCCc2cc(Cl)ccc21)CO3` [Example 100111, 2-((1S,3′R,6′R,7′R,11′S,12′R)-6-chloro-7′-hydroxy-11′,12′-dimethyl-13′,13′-dioxido-15′-oxo-3,4-dihydro-2H-spiro[naphthalene-1,22′-[20]oxa[13]thia[1,14]diazatetracyclo [14.7.2.0~3,6~.0~19,24~]pentacosa[16,18,24]trien]-7′-yl)-N,N-diethylacetamide], the values for the IC50 in test [1] and in test [2] (setting [8]) were 0.352 nM and 687 nM, respectively.
For the compound `CC[C@@]1(O)CCC[C@H](C)[C@@H](C)S(=O)(=O)NC(=O)c2ccc3c(c2)N(C[C@@H]2CC[C@H]21)C[C@@]1(CCCc2cc(Cl)ccc21)CO3` [Example 100079, (1S,3′R,6′R,7′R,11′S,12′R)-6-chloro-7′-ethyl-7′-hydroxy-11′,12′-dimethyl-3,4-dihydro-2H,15′H-spiro[naphthalene-1,22′-[20]oxa[13]thia[1,14]diazatetracyclo [14.7.2.0~3,6~.0~19,24~]pentacosa[16,18,24]trien]-15′-one 13′,13′-dioxide], the IC50 in test [1] (setting [7]) turned out to be 0.343 nM; in test [2] (setting [3]), 713 nM.

The record behind these values is US10821115B2, “Compounds that inhibit Mcl-1 protein” (priority 2017, dated 2020).
